According to US20170303817A1, “SURGICAL ARTICLES AND METHODS FOR DETECTION” (GEORGIA STATE UNIVERSITY RESEARCH FOUNDATION, INC., priority 2014, published 2017):

Columns and labels:
[1] = NIR dye leaching from sponges: fluorescence of canine blood samples; conditions: for fluorescence of test canine blood sample (ICG leaching): blood and DMSO in a 1:3 ratio
[2] = In vivo detection of ICG sponge in canine surgical site, 780 nm laser; design: species or system dog; conditions: FIG. 7
Procedure: Method: A stray female dog (Doberman […]) underwent an ovariohysterectomy procedure. After making an incision in the dog's abdomen, a standard 4×4 surgical gauze was placed inside the surgical site and allowed to become saturated with blood. A 780 nm laser was focused on a portion of the gauze and the area photographed and observed for excitation. This experiment was repeated using a sponge soaked in 1 mM ICG dye solution for 1 hr and a sponge soaked in 1 mM ICG dye solution for 24 hrs. Prior to in vivo use, the sponges first underwent sterilization: Steam sterilization at 350° F. for 20 min and gas sterilization in ethylene oxide for 12-24 hr.

- fluorescence of test canine blood sample (ICG leaching) ([1]; 1 hr after sponge placement): no fluorescence
- fluorescence of test canine blood sample (ICG leaching) ([1]; 4 hours after sponge placement): no fluorescence
- fluorescence wavelength in control canine blood sample ([1]; canine blood spiked with 0.1 mM solution of ICG in DMSO, FIG. 8): 815 nm
Structure (SMILES): CC1(C)C(/C=C/C=C/C=C/C=C2\N(CCCCS(=O)(=O)O)c3ccc4ccccc4c3C2(C)C)=[N+](CCCCS(=O)(=O)[O-])c2ccc3ccccc3c21 [ICG, indocyanine green]
- fluorescence of sponge soaked for 24 hrs compared to sponge soaked for 1 hr ([2]; 1 mM ICG dye solution): increase in florescence
- fluorescence of treated sponge compared to the untreated sponge ([2]; sponge treated with 1 mM ICG solution): significant increase in the fluorescence
